Molecular target: T1, HASPIN (Homo sapiens, UniProt Q8TF76)
T1 sequence (Q8TF76 1-798): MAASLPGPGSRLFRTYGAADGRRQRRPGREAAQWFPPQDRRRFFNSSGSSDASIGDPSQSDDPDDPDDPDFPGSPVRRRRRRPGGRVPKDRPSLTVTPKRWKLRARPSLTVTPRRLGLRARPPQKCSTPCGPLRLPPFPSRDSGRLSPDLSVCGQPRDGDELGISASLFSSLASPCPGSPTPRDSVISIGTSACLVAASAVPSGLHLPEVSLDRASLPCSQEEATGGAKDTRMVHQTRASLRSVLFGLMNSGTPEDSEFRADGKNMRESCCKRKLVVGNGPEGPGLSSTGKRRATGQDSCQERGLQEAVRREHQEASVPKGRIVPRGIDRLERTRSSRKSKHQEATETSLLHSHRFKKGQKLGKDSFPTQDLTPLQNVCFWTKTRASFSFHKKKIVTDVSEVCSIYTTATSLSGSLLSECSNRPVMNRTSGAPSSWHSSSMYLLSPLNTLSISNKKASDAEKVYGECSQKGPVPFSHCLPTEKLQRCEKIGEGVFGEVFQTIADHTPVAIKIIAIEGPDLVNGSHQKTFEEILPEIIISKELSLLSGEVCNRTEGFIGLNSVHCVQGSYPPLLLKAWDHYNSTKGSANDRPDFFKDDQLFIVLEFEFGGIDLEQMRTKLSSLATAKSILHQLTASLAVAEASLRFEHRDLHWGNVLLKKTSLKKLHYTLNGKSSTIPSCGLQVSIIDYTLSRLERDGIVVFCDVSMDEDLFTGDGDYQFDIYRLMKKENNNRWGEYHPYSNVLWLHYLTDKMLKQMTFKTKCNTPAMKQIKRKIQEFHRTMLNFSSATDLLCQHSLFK
Experiment: HASPIN biochemical assay (ADP-Glo, HASPIN autophosphorylation)
Conditions: ATP 150 µM, 60 min at 30 °C
Description: HASPIN biochemical Assay: The biochemical assay to measure HASPIN activity relies on the ADP-Glo™ assay kit (Promega) that determines the amount of ADP as direct product of the kinase enzyme activity. Assay conditions were as indicated by the kit manufacturers with the following adaptations for the kinase activity step: Kinase assay buffer and assay volume (15 mM HEPES pH 7.5, 20 mM NaCl, 1 mM EGTA, 0.02% TWEEN 20, 10 mM MgCl2, 0.1 mg/mL BGG)/25 µL assay volume). Incubation time and temperature: 60 min at 30 °C. HASPIN final concentration: 0.9 µg/mL. ATP final concentration: 150 µM. HASPIN autophosphorylation was measured. Assays were performed in 384-well plates. The final outcome of the coupled reactions provided by the kit is the release of […] and has been measured with a multilabel HTS counter Victor V / Envision. Values were normalized against the control activity included (100% HASPIN activity, without compound). Values were plotted against the inhibitor concentration and fit to a sigmoid dose-response curve using Activity base by IDBS software.

Row | Structure (SMILES) | IC50 [nM]
1 | NC(=O)c1cn2cc(-c3ccncc3)nc(NCC3CCNCC3)c2n1 [Compound 2, 8-[(Piperidin-4-ylmethyl)-amino]-6-pyridin-4-yl-imidazo[1,2-a]pyrazine-2-carboxylic acid amide] | 30
2 | COCCNC(=O)c1cn2cc(-c3ccncc3)nc(NCC3CCNCC3)c2n1 [Compound 5, 8-[(Piperidin-4-ylmethyl)-amino]-6-pyridin-4-yl-imidazo[1,2-a]pyrazine-2-carboxylic acid (2-methoxy-ethyl)-amide] | 229
3 | N#CC1(CNc2nc(-c3ccnc(Cl)c3)cn3cc(C(N)=O)nc23)CCNCC1 [Compound 6, 6-(2-Chloro-pyridin-4-yl)-8-[(4-cyano-piperidin-4-ylmethyl)-amino]-imidazo[1,2-a]pyrazine-2-carboxylic acid amide] | 59.6
4 | CNC(=O)c1nc2c(NCC3CCNCC3)nc(-c3ccncc3)cn2c1C [Compound 7, 3-Methyl-8-[(piperidin-4-ylmethyl)-amino]-6-pyridin-4-yl-imidazo[1,2-a]pyrazine-2-carboxylic acid methylamide] | 60
5 | Cc1c(C(N)=O)nc2c(NCC3CCNCC3)nc(-c3ccncc3)cn12 [Compound 9, 3-Methyl-8-[(piperidin-4-ylmethyl)-amino]-6-pyridin-4-yl-imidazo[1,2-a]pyrazine-2-carboxylic acid amide] | 180
6 | CNC(=O)c1nc2c(NCC3CCNCC3)nc(-c3ccnc(Cl)c3)cn2c1C [Compound 11, 6-(2-Chloro-pyridin-4-yl)-3-methyl-8-[(piperidin-4-ylmethyl)-amino]-imidazo[1,2-a]pyrazine-2-carboxylic acid methylamide] | 65
7 | Cc1c(C(N)=O)nc2c(NCC3CCNCC3)nc(-c3ccnc(Cl)c3)cn12 [Compound 12, 6-(2-Chloro-pyridin-4-yl)-3-methyl-8-[(piperidin-4-ylmethyl)-amino]-imidazo[1,2-a]pyrazine-2-carboxylic acid amide] | 253
8 | CNC(=O)c1nc2c(NCC3(F)CCNCC3)nc(-c3ccncc3)cn2c1C [Compound 14, 8-[(4-Fluoro-piperidin-4-ylmethyl)-amino]-3-methyl-6-pyridin-4-yl-imidazo[1,2-a]pyrazine-2-carboxylic acid methylamide] | 78
9 | NC(=O)c1cn2cc(-c3ccncc3)nc(NCC3(F)CCNCC3)c2n1 [Compound 15, 8-[(4-Fluoro-piperidin-4-ylmethyl)-amino]-6-pyridin-4-yl-imidazo[1,2-a]pyrazine-2-carboxylic acid amide] | 25.9
10 | Cc1c(C(N)=O)nc2c(NCC3(F)CCNCC3)nc(-c3ccncc3)cn12 [Compound 16, 8-[(4-Fluoro-piperidin-4-ylmethyl)-amino]-3-methyl-6-pyridin-4-yl-imidazo[1,2-a]pyrazine-2-carboxylic acid amide] | 96
11 | CNC(=O)c1nc2c(NCC3(C#N)CCNCC3)nc(-c3ccncc3)cn2c1C [Compound 17, 8-[(4-Cyano-piperidin-4-ylmethyl)-amino]-3-methyl-6-pyridin-4-yl-imidazo[1,2-a]pyrazine-2-carboxylic acid methylamide] | 18.2
12 | COCCNC(=O)c1nc2c(NCC3(C#N)CCNCC3)nc(-c3ccncc3)cn2c1C [Compound 18, 8-[(4-Cyano-piperidin-4-ylmethyl)-amino]-3-methyl-6-pyridin-4-yl-imidazo[1,2-a]pyrazine-2-carboxylic acid (2-methoxy-ethyl)-amide] | 138
13 | Cc1c(C(N)=O)nc2c(NCC3(C#N)CCNCC3)nc(-c3ccncc3)cn12 [Compound 19, 8-[(4-Cyano-piperidin-4-ylmethyl)-amino]-3-methyl-6-pyridin-4-yl-imidazo[1,2-a]pyrazine-2-carboxylic acid amide] | 45.7
14 | CNC(=O)c1nc2c(NCC3(F)CCNCC3)nc(-c3ccnc(Cl)c3)cn2c1C [Compound 20, 6-(2-Chloro-pyridin-4-yl)-8-[(4-fluoro-piperidin-4-ylmethyl)-amino]-3-methyl-imidazo[1,2-a]pyrazine-2-carboxylic acid methylamide] | 78.8
15 | CNC(=O)c1nc2c(NCC3(C#N)CCNCC3)nc(-c3ccnc(Cl)c3)cn2c1C [Compound 21, 6-(2-Chloro-pyridin-4-yl)-8-[(4-cyano-piperidin-4-ylmethyl)-amino]-3-methyl-imidazo[1,2-a]pyrazine-2-carboxylic acid methylamide] | 151
16 | Cc1c(C(N)=O)nc2c(NCC3(C#N)CCNCC3)nc(-c3ccnc(Cl)c3)cn12 [Compound 24, 6-(2-Chloro-pyridin-4-yl)-8-[(4-cyano-piperidin-4-ylmethyl)-amino]-3-methyl-imidazo[1,2-a]pyrazine-2-carboxylic acid amide] | 111
17 | Cc1c(C(N)=O)nc2c(NCC3(F)CCNCC3)nc(-c3ccnc(Cl)c3)cn12 [Compound 25, 6-(2-Chloro-pyridin-4-yl)-8-[(4-fluoro-piperidin-4-ylmethyl)-amino]-3-methyl-imidazo[1,2-a]pyrazine-2-carboxylic acid amide] | 157
18 | CNC(=O)c1cn2cc(-c3ccncc3F)nc(NCC3CCNCC3)c2n1 [Compound 28, 6-(3-Fluoro-pyridin-4-yl)-8-[(piperidin-4-ylmethyl)-amino]-imidazo[1,2-a]pyrazine-2-carboxylic acid methylamide] | 19.5
19 | N#CC1(CNc2nc(-c3ccncc3F)cn3cc(C(N)=O)nc23)CCNCC1 [Compound 29, 8-[(4-Cyano-piperidin-4-ylmethyl)-amino]-6-(3-fluoro-pyridin-4-yl)-imidazo[1,2-a]pyrazine-2-carboxylic acid amide] | 6.59
20 | NC(=O)c1cn2cc(-c3ccncc3Cl)nc(NCC3CCNCC3)c2n1 [Compound 30, 6-(3-Chloro-pyridin-4-yl)-8-[(piperidin-4-ylmethyl)-amino]-imidazo[1,2-a]pyrazine-2-carboxylic acid amide] | 187
21 | CNC(=O)c1cn2cc(-c3ccncc3Cl)nc(NCC3CCNCC3)c2n1 [Compound 31, 6-(3-Chloro-pyridin-4-yl)-8-[(piperidin-4-ylmethyl)-amino]-imidazo[1,2-a]pyrazine-2-carboxylic acid methylamide] | 189
22 | CNC(=O)c1nc2c(NCC3CCNCC3)nc(-c3ccncc3F)cn2c1C [Compound 35, 6-(3-Fluoro-pyridin-4-yl)-3-methyl-8-[(piperidin-4-ylmethyl)-amino]-imidazo[1,2-a]pyrazine-2-carboxylic acid methylamide] | 94.8
23 | NC(=O)c1cn2cc(-c3ccncc3)nc(N[C@H]3CC[C@@H](N)CC3)c2n1 [Compound 39, 8-(cis-4-Amino-cyclohexylamino)-6-pyridin-4-yl-imidazo[1,2-a]pyrazine-2-carboxylic acid amide] | 140
24 | NC(=O)c1cn2cc(-c3ccnc(N)c3)nc(NCC3(F)CCNCC3)c2n1 [Compound 41, 6-(2-Amino-pyridin-4-yl)-8-[(4-fluoro-piperidin-4-ylmethyl)-amino]-imidazo[1,2-a]pyrazine-2-carboxylic acid amide] | 34.5
25 | NC(=O)c1cn2cc(-c3ccncc3)nc(NCC3(O)CCNCC3)c2n1 [Compound 44, 8-[(4-Hydroxy-piperidin-4-ylmethyl)-amino]-6-pyridin-4-yl-imidazo[1,2-a]pyrazine-2-carboxylic acid amide] | 46.8
26 | NC(=O)c1cn2cc(-c3ccns3)nc(NCC3(F)CCNCC3)c2n1 [Compound 46, 8-[(4-Fluoro-piperidin-4-ylmethyl)-amino]-6-isothiazol-5-yl-imidazo[1,2-a]pyrazine-2-carboxylic acid amide] | 85.6

From EP4049726A1, “IMIDAZO[1,2-A]PYRAZINES AS INHIBITORS OF HASPIN AND THERAPEUTIC USES THEREOF” (Fundación del Sector Público Estatal Centro Nacional de …, priority 2021, dated 2022)
